Marks after values point to notes of the source that are not given here.
Legend:
[1] = molecular target: T1, PPAR γ (Mus musculus, UniProt P37238); conditions: ABA 12.5 μM, rosiglitazone 1 μM; previously found (ref 48); cited from earlier work
T1 construct: expressed in transfected cells; host or cells: 3T3-L1 pre-adipocytes (ATCC)
T1 sequence (P37238 1-505): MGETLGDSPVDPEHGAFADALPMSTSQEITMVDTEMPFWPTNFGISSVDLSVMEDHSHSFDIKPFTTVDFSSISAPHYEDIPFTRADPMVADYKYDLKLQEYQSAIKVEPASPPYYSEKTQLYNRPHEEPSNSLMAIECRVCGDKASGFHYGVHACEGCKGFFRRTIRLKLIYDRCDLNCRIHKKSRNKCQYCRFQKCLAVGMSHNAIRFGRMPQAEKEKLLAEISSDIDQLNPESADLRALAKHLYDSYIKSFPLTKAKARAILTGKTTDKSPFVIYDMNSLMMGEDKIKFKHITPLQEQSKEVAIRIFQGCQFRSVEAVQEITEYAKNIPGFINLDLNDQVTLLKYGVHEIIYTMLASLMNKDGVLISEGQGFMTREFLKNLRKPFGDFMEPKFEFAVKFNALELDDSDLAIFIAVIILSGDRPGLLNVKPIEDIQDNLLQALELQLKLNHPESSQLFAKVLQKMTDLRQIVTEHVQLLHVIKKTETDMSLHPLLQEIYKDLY

[2] = tested on: db/db mice; test: WAT and skeletal muscle (SM) inflammation in db/db mice (Example 8); assay type: in vivo
Method: WAT Digestion. […] The floating portion (adipocyte-rich portion), was then removed and digested for an addition 60 minutes at 37° C.
Quantitative real-time reverse transcriptase PCR.
Complementary DNA (cDNA) concentrations for genes of interest were examined by real-time quantitative PCR using an iCycler IQ System and the iQ SYBR green supermix (BioRad). A standard curve was generated for each gene using 10-fold dilutions of purified amplicons starting at 5 pg of cDNA and used later to calculate the starting amount of target cDNA in the unknowns.

[3] = tested on: db/db mice; test: Fasting glucose, plasma MCP-1, plasma and liver triglycerides, hepatic steatosis, body weight in db/db mice (Example 9); assay type: in vivo
Method: Hepatic Steatosis, plasma MCP-1 and liver triglyceride content Liver specimens were excised and immediately fixed in 10% phosphate buffered neutral formalin, embedded in paraffin, cut at thicknesses of 5 microns and stained with hematoxylin and eosin (H&E) for histological examination. For hepatic triglyceride assessment, livers fragments (50-100 mg) were extracted for 16 hours at 4° C. with 4 ml CHCl/methanol (2:1, vol/vol). Two milliliters of 0.6% NaCl were then added to the extract, and the mixture was centrifuged at 2,000×g for 20 minutes. Lipids were isolated by nitrogen evaporation, dissolved in 100 μl isopropanol, and quantified with a triglyceride assay kit (Stanbio). The Triglyceride Assay Kit (Sigma) and Ready-set-go MCP-1 ELISA (ebioscience) were used to quantify plasma TGs and MCP-1, respectively, according to manufacturer's instructions.

[4] = tested on: CTLA-4 on CD4+ T cells; test: CTLA-4 assessment in cultured CD3/CD28-stimulated splenocytes; assay type: cell-based, mice; conditions: ABA 10 μM, 20 hr
Method: Splenocytes from wild-type mice (n=2) were isolated under sterile conditions and seeded into 96-well plates as described above. Cells were stimulated with anti-CD3 (5 μg/mL; BD Pharmingen) and anti-CD28 (1 μg/mL; BD Pharmingen) to induce proliferation and then treated with DMSO or ABA (10 μM, Sigma). Cells were then placed in a 37° C. incubator with 5% CO2 for 20 hours and immunophenotyped with anti-CD4 Alexa Fluor 700 (BD Pharmingen), anti-CD3-PE-Cy5 (BD Pharmingen), anti-CD8-PerCp-Cy5.5 (eBioscience), and'anti-CD152 (CTLA-4)-biotin (BD). Streptavidin PE-Texas Red (1 μg/mL; BD Pharmingen) was used as a secondary antibody. Flow results were computed with a BD LSR II flow cytometer and data analyses was performed with FACS Diva software (BD).

[5] = tested on: CD8+ T cells; test: CFSE flow cytometry proliferation assay, Concanavalin A-stimulated splenocytes, CD8+ T cells; assay type: cell-based, mice; conditions: 100 mg ABA/kg diet; first 4 generations
Method: Single cell suspensions were prepared from the spleen by gently crushing the spleens excised during the necropsy procedure between the frosted ends of microscope glass slides previously autoclaved. Tissue debris were removed by settling, erythrocytes were eliminated by hypotonic lysis and cells finally resuspended in complete RPMI (cRPMI, 10% fetal bovine serum (Hyclone, Logan, Utah), 25 mM HEPES buffer (Sigma, St. Louis, Mo.), 100 units/ml penicillin (Sigma), […] streptomycin (Sigma), 1 mM sodium pyruvate (Sigma), 1 mM nonessential aminoacids (Sigma), and 2 mM essential amino acids (Mediatech), and enumerated with a Coulter Z1 Single Particle Counter (Beckman Coulter, Miami, Fla.). […]
Splenocytes at 10^6 cells/ml were seeded in 96-well, round-bottom microtiter plates and incubated incomplete RPMI with or without Concanavalin A (Sigma) at 2.5 μg/ml. […] Following 2 washes in Fluorescence activated cell sorting (FACS) buffer, cells were incubated with streptavidin-PeCy5 (Pharmingen, San Diego, Calif.) for the biotinylated anti-mouse CD4 antibody. Cells were analyzed by 3-color flow cytometry (CFSE, phycoerythrin and PeCy5) in a FACScalibur instrument (Becton Dickinson). Ten thousand events were acquired, and data were analyzed using the Cell Quest Pro™ software (Becton Dickinson). Proliferation was assessed by the decrease in fluorescent intensity of CFSE staining. […]

[6] = db/db mice, 100 mg/kg diet, 36 days, vs control high-fat diet

Question: What does the source list for CC1=CC(=O)CC(C)(C)C1(O)/C=C/C(C)=C\C(=O)O (racemic) [ABA, abscisic acid]?
Answer: PPAR γ transactivation, comparison of the two agonists [1]: equally effective; MCP-1 expression in SM ([2]; ABA-fed mice): significantly downregulated; MCP-1 expression in stromal vascular cells (SVCs) ([2]; ABA-fed mice): significantly downregulated; TNF-α expression in SM, control-fed db/db versus ABA-fed db/db mice ([2]; P=0.03): approximately 2 fold; IMAT adipocyte hypertrophy ([2]; db/db mice, 100 mg ABA/kg diet, 36 days): significantly attenuated; CCR2 and CCR5 macrophage infiltration into WAT ([2]; dietary ABA-supplementation, 36 days): significantly decreased; MCP-1 protein concentrations in plasma ([3]; ABA-fed db/db mice): significantly decreased; decrease in plasma MCP-1 ([3]; ABA-fed db/db mice): 4 fold; hepatic steatosis, liver histology ([3]; ABA-fed db/db mice): less severe; fasting blood glucose (FBG) [3, 6]: significantly lower; plasma TGs concentrations [3, 6]: significantly lower; food intake or body weights ([3]; db/db mice, throughout the experiment): did not alter food intake or body weights; amount of liver triglycerides ([3]; vs control diet): significantly lower; CTLA-4 median fluorescence intensity (MFI) on CD4+ cells [4]: increased CTLA-4 MFI; percent of CD4+ T cells expressing CTLA-4 [4]: significantly increased; CD8+ T cells RPI1 [5]: 5.261*
